From the supplement of paper PMC12463676, “Small-molecule dissolution of stress granules by redox modulation benefits ALS models” (Nature Chemical Biology, 2025)

What was measured:
[1] = compound: NC(=O)CCCCC1CCSS1 [lipoamide]; assay: thermal stability z-score vs DMSO; higher = more thermally stabilized by treatment; details: HeLa, lipoamide concentration 100 µM
Experimental: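 Cellular thermal proteome profiling in HeLa cells. Cells were treated with 100 µM lipoamide for 1 h, with or without 1 mM arsenate for a further 1 h, then heated to ten temperatures (37-66.3 °C), and soluble protein was quantified by TMT mass spectrometry relative to 0.1% DMSO controls. The thermal stability score (sum of log2 fold changes minus the abundance score) was transformed to a z-score; mean of n = 3 experiments.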

[2] = compound: O=[As]([O-])(O)O.[K+] [potassium arsenate]; assay: as above; details: HeLa; arsenate concentration 1 mM
Experimental: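 Cellular thermal proteome profiling in HeLa cells treated with 1 mM arsenate for 1 h (DMSO pretreatment), heated to ten temperatures (37-66.3 °C). Soluble protein was quantified by TMT mass spectrometry relative to DMSO controls; the thermal stability score was transformed to a z-score; mean of n = 3 experiments.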

[3] = arsenate co-treatment: 1 mM arsenate 1 h
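Also: each temperature applied for 3 min, abundance score taken as mean log2 fold change at the two lowest temperatures, z-score obtained by mean subtraction and division by SD.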

UniProt Q96T37, sequence (Q96T37 whole entry): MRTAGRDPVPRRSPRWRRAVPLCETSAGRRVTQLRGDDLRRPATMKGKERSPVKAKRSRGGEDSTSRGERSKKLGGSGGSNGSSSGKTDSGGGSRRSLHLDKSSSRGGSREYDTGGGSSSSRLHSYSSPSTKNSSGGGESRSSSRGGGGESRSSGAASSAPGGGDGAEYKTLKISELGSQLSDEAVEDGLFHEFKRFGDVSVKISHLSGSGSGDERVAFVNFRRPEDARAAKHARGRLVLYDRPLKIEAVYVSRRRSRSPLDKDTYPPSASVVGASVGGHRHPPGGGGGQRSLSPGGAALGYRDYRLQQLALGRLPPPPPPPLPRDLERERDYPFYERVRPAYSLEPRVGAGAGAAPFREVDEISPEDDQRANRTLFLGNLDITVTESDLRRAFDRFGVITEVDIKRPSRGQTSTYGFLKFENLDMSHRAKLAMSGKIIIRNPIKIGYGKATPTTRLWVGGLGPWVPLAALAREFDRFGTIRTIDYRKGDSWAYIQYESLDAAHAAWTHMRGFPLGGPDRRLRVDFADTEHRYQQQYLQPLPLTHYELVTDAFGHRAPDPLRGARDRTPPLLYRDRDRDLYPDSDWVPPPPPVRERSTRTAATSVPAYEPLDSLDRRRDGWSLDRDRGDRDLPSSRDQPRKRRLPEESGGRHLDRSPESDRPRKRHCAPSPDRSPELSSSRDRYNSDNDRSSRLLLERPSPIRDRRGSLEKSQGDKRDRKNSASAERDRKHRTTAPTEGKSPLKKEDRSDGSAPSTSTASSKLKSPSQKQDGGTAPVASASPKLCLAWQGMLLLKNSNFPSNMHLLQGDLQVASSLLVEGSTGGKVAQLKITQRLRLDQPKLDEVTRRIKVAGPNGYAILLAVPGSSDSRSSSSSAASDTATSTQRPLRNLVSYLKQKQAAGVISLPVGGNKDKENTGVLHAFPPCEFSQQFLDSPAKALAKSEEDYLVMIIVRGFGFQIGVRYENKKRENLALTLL
UniProt P38159, sequence (P38159 whole entry): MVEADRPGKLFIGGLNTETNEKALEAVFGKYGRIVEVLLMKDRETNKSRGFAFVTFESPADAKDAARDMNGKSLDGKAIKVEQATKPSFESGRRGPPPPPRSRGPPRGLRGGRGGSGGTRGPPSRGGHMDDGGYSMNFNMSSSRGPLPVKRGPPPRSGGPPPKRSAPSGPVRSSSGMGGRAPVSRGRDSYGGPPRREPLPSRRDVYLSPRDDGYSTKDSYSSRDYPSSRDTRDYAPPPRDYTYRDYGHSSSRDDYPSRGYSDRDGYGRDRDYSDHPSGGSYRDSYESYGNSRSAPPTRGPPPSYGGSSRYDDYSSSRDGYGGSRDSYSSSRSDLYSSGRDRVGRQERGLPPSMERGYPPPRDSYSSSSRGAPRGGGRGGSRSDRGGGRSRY
UniProt Q9P2N5, sequence (Q9P2N5 whole entry): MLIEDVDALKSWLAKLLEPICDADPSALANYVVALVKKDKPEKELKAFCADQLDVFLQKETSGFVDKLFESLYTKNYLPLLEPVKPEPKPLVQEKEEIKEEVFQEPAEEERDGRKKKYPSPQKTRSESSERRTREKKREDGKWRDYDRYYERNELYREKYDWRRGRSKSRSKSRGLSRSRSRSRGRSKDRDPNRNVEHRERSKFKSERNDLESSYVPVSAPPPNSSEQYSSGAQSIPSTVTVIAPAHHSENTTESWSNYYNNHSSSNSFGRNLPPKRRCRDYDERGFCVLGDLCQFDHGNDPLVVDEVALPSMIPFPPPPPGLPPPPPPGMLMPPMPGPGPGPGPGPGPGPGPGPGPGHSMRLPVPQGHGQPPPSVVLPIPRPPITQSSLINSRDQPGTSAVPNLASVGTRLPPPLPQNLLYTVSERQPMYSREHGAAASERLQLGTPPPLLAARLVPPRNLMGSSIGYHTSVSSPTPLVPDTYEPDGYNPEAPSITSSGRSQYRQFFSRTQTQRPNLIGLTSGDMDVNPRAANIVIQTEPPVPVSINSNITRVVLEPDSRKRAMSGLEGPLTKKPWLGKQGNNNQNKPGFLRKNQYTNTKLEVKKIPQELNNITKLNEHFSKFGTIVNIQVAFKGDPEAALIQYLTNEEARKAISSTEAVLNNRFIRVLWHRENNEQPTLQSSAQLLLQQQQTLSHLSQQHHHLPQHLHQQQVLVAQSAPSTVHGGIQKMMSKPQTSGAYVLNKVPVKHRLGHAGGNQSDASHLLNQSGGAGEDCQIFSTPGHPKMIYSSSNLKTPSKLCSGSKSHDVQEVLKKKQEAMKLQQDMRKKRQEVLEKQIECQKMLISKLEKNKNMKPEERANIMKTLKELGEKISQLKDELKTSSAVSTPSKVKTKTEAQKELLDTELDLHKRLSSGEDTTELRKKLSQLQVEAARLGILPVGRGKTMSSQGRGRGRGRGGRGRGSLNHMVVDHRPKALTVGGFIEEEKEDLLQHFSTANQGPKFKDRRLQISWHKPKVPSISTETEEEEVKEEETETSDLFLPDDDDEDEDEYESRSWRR
UniProt Q9H477, sequence (Q9H477 whole entry): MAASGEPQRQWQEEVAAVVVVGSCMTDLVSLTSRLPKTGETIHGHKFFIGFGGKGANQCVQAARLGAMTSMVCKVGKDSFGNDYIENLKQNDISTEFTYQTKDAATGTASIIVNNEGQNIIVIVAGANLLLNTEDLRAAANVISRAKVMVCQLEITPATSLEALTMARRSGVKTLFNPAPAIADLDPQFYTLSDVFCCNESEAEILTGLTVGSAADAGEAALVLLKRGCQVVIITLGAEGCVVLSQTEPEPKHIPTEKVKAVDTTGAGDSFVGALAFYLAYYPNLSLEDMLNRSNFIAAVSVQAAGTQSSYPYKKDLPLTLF
UniProt Q8NHQ8, sequence (Q8NHQ8 whole entry): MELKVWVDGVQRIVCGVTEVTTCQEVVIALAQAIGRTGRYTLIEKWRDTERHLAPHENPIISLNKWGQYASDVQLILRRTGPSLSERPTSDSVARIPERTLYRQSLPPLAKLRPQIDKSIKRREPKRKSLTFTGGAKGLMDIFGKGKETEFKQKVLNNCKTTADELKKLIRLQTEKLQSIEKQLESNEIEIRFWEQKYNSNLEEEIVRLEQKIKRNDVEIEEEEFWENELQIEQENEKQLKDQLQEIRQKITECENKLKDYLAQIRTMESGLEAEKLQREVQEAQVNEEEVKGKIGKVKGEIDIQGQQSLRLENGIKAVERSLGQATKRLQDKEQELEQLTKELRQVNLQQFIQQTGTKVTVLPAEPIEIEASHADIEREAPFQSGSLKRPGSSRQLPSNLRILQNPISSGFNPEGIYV
UniProt P78332, sequence (P78332 whole entry): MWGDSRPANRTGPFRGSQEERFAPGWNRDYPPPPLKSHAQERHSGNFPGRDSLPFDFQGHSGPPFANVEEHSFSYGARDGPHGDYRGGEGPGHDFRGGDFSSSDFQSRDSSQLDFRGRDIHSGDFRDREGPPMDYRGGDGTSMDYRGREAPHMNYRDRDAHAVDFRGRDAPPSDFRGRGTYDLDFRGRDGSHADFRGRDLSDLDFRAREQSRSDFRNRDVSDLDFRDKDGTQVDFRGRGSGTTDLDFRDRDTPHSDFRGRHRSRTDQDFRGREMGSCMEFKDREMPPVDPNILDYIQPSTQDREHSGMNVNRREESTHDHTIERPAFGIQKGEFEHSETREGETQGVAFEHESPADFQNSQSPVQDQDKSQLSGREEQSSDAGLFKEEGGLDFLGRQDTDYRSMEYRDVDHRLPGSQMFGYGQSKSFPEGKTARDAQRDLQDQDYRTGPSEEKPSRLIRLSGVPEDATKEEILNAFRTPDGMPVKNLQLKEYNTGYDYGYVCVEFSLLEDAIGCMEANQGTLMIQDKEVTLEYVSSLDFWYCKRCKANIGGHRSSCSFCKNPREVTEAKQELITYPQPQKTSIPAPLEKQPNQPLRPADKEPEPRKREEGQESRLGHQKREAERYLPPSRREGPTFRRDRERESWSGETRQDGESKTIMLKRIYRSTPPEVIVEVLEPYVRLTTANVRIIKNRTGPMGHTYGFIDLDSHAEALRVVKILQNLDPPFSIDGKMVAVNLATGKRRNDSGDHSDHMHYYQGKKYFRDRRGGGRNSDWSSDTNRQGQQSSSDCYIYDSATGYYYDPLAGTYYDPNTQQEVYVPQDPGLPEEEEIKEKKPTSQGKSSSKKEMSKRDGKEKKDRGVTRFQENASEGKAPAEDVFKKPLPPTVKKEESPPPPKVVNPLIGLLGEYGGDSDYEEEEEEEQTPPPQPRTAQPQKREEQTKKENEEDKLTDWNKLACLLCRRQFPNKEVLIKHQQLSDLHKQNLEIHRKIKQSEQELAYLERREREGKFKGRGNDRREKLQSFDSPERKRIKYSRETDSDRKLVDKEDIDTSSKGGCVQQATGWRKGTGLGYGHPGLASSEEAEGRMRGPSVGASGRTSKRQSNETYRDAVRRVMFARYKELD
UniProt Q14498, sequence (Q14498 whole entry): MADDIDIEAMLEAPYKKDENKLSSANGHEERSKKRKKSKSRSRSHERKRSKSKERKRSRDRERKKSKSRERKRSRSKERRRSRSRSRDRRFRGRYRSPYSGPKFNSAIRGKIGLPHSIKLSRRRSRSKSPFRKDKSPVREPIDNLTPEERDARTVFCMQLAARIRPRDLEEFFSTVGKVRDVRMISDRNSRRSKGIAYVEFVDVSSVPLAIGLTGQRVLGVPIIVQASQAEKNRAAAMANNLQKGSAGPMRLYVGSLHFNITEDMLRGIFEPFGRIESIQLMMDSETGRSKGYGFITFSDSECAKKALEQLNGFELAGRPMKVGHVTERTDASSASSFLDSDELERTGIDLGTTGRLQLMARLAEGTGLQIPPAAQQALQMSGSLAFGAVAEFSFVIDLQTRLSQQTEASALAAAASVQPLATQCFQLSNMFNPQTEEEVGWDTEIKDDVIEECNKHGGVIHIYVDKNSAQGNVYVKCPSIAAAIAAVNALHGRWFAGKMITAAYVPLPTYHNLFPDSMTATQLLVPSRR
UniProt P98179, sequence (P98179 whole entry): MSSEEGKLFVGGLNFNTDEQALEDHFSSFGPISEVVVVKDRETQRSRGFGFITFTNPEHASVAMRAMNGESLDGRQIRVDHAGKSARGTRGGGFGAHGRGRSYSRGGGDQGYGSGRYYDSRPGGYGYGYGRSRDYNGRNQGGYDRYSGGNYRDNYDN

| Target | thermal stability z-score [1, 3] | thermal stability z-score ([1]; arsenate co-treatment: none) | thermal stability z-score [2] |
| --- | --- | --- | --- |
| RASSF8 (UniProt Q8NHQ8) | -0.0675 | -0.05 | -0.0803 |
| RAVER1 (UniProt Q8IY67) | -0.141 | -0.0728 | -0.162 |
| RAVER2 (UniProt Q9HCJ3) | 0.204 | 0.253 | -0.0887 |
| RB1 (UniProt P06400) | 0.306 | 0.229 | -0.64 |
| RB1CC1 (UniProt Q8TDY2) | -0.502 | -0.143 | 0.893 |
| RBBP4 (UniProt Q09028) | 0.868 | 0.934 | -0.0159 |
| RBBP5 (UniProt Q15291) | 1.23 | 0.518 | -0.769 |
| RBBP6 (UniProt Q7Z6E9) | 0.06 | -0.0854 | -0.263 |
| RBBP7 (UniProt Q16576) | 0.794 | 0.539 | -0.595 |
| RBBP9 (UniProt O75884) | 0.308 | 0.162 | 0.167 |
| RBFOX2 (UniProt O43251) | -0.112 | 0.314 | 0.171 |
| RBKS (UniProt Q9H477) | -0.0153 | -0.521 | 0.335 |
| RBM3 (UniProt P98179) | 0.0805 | -0.138 | 0.167 |
| RBM4 (UniProt Q9BWF3) | 0.135 | 0.129 | 0.216 |
| RBM6 (UniProt P78332) | -0.00588 | 0.0644 | 0.000188 |
| RBM7 (UniProt Q9Y580) | 0.00736 | 0.0818 | 0.0182 |
| RBM8A (UniProt Q9Y5S9) | -0.156 | 0.28 | 0.0981 |
| RBM10 | 3.5 | 2.13 | 1.25 |

| Target | thermal stability z-score [1, 3] | thermal stability z-score ([1]; arsenate co-treatment: none) | thermal stability z-score [2] |
| --- | --- | --- | --- |
| RBM12 (UniProt Q9NTZ6) | -0.205 | -0.19 | -0.506 |
| RBM14 (UniProt Q96PK6) | -0.169 | -0.0944 | -0.803 |
| RBM15 (UniProt Q96T37) | -0.454 | -0.0697 | -0.321 |
| RBM17 (UniProt Q96I25) | 0.528 | 0.441 | 0.243 |
| RBM19 (UniProt Q9Y4C8) | 0.0627 | 0.309 | 0.649 |
| RBM22 (UniProt Q9NW64) | -0.0944 | 0.0307 | -1.96 |
| RBM25 (UniProt P49756) | -0.0516 | 0.34 | -0.454 |
| RBM26 (UniProt Q5T8P6) | -0.0221 | 0.172 | -0.536 |
| RBM27 (UniProt Q9P2N5) | -0.453 | -0.373 | -0.145 |
| RBM28 (UniProt Q9NW13) | -0.0361 | -0.0267 | -0.81 |
| RBM33 (UniProt Q96EV2) | 0.0301 | -0.534 | -0.175 |
| RBM34 (UniProt P42696) | 0.0729 | -0.0422 | -0.201 |
| RBM39 (UniProt Q14498) | -0.398 | 0.0967 | -0.546 |
| RBM42 (UniProt Q9BTD8) | 0.952 | 0.152 | -0.098 |
| RBM47 | 0.133 | -0.661 | -0.629 |
| RBMS1 (UniProt P29558) | -0.643 | 0.176 | -0.265 |
| RBMS2 (UniProt Q15434) | 0.0996 | 0.158 | -0.0696 |
| RBMX (UniProt P38159) | 1.51 | 0.311 | -0.366 |
